From US6908930B2, “4-substituted 7-AZA-indolin-2-ones and their use as protein kinase inhibitors” (Sugen, Inc., priority 1999, dated 2005) come the findings set out here.

SMILES strings stand for the structures. Counter-ions that a name gives are not always drawn.

Assay [1] addresses T1, EGFR (Homo sapiens, UniProt P00533).
T1 construct: A431 […] cell lysate is stored at −80° C; host or cells: A431 cell lysate
Briefly: Assay for modulation of EGFR activity (ELISA). The assay is classed as biochemical. Particulars: for IC50: read-out: bio EGFR IC50. Here is the method:
Using the following reagents, supplies, and method, the ability of compounds of the invention to modulate the in vitro activity of EGFR can be readily determined in an ELISA.
A431 […] cell lysate is stored at −80° C.
ATP/MnCl2 phosphorylation mix is prepared by adding 300 μL of 1.0 mM ATP and […] of 1M MnCl2 to 9.2 mL of dH2O and mixing. Ten mL of phosphorylation mix is enough for about 6 assay plates. Note that the mixture should be made fresh and kept on ice immediately before use, and that although the preferred ATP is fresh from powder stock, any remaining stock solution of ATP may be frozen at −20° C. in small aliquots to be used at a later time.
Coat Corning 96 well ELISA plates with 0.5 μg per well with SUMO1 in a volume of 100 μL PBS overnight, at 4° C. Remove unbound SUMO1 from wells by inverting plate to remove liquid. Wash 1× with distilled H2O by filling wells. Pat the plate on a paper towel to remove excess liquid.
Add 150 μL of Blocking Buffer to each well. Incubate for 30 minutes at room temperature, with shaking. Wash plate 3× with deionized water, then once with TBST. Pat plate on a paper towel to remove excess liquid and bubbles.
Dilute lysate in PBS (7 μg lysate/[…]) and add 100 μL of diluted lysate to each well. Shake at room temperature for 60 minutes. Wash 1× with distilled H2O by filling wells. Pat the plate on a paper towel to remove excess liquid.
Add 120 μL TBST to ELISA plate containing captured EGFR.
Dilute drugs/extracts 1:10 (unless specified otherwise) in TBST in 96-well polypropylene plates. (i.e., 10 μL compound+90 μL TBST). Add 13.5 μL diluted drugs/extracts to ELISA plate. […] Incubate for 30 minutes while shaking at room temperature.
Approximately 150 μL final volume in well with 3 uM ATP/5 mM MnCl2 final concentration in well. Incubate 5 minutes while shaking. Note that this is a timed event. It is critical that ATP/MnCl2 phosphorylates the receptor for only 5 minutes. It is best to add the ATP/MnCl2 with an automated 96 place pipettor workstation, then 5 minutes later stop the reaction with EDTA using the same workstation. Alternatively, addition can be performed using a 12 channel pipettor 1 row at a time, leaving 20 seconds between each row so that the reaction may be stopped with EDTA exactly 5 minutes later (this depends on the number of plates being phosphorylated in one batch). Shake between each addition.
[…] This is done using either the same work station as above, or the same timing method employed with the 12 channel pipettor. After the EDTA has been added, shake for 1 minute. Wash 4× with deionized water, twice with TBST.
Add 100 μL per well of anti-phosphotyrosine (1:3000 dilution in TBST). Incubate 30-45 minutes at room temperature, with shaking. Wash 1× with distilled H2O by filling wells. Pat the plate on a paper towel to remove excess liquid.
Incubate 30 minutes at room temperature, with shaking. Wash 1× with distilled H2O by filling wells. Pat the plate on a paper towel to remove excess liquid.
Add 100 μL of ABTS/H2O2 solution to each well. Incubate 5 to 10 minutes while shaking. Remove any bubbles. If necessary stop reaction with the addition of 100 μL of 0.2M HCl per well.
Read assay on Dynatech MR7000 ELISA reader.
In general terms: In an ELISA, binding on a coated surface is turned into a signal by an enzyme label.

Assay [2] addresses T2, human cdk2/cyclin A (Homo sapiens, UniProt P24941).
T2 construct: made in house; host or cells: Sf9 (baculovirus)
Briefly: Assay for inhibition of CDK2 (Scintillation Proximity Assay). The assay is classed as biochemical. Particulars: read-out: cdk2SPA IC50. The protocol: Using the following reagents, supplies, and method, the ability of compounds of the invention to assay for modulation of the in vitro kinase activity of human cdk2/cyclin A in a Scintillation Proximity Assay (SPA).
Activated cdk2/cyclin A enzyme complex is purified from Sf9 cells and stored at −80° C. in 200 μL aliquots. Human cdk2/cyclin A protein is expressed, activated, and purified from baculovirus infected sf9 cells as described previously. (J. Mol. Biol., 230:1317-1319 (1993)).
The substrate is a biotinylated peptide substrate (Debtide), which is a peptide biotin-X-[…] dissolved in dH2O at a concentration of 5 mg/mL and stored at −80° C. in 100 μL aliquots.
The Peptide/ATP mixture is prepared by mixing 9.979 mL dH2O with 0.00125 mL of cold 10 mM ATP, 0.010 mL of 5 mg/mL Debtide, and 0.010 mL of 10 μCi/mL γ^33P ATP.
A 2.5× kinase buffer is prepared by mixing 8.85 mL of dH2O with 0.625 mL of 1M Tris pH 7.4, 0.25 mL of 1M MgCl2, 0.25 mL of 10% NP40, and 0.025 mL of 1M DTT. Ten milliliters of kinase buffer mix is sufficient for about 4.5 assay plates.
Prepare solutions of inhibitors at 5× the desired final concentration in 5% DMSO. Add 10 μL to each well. For negative controls, add 10 μL 5% DMSO.
Dilute 5 μL of cdk2/cyclin A solution into 2.1 mL 2× kinase buffer (per plate) and add 20 μL enzyme per well. This can be added using a hand pipette or by using the Titertek Multidrop. […] For each freeze/thaw cycle, double the amount of enzyme used in the assay. Also, the enzyme should be thawed quickly (e.g., in the palm of one's hand) and be kept on ice prior to use in the assay. Add 10 μL of 0.5 M EDTA to the negative control wells.
To start kinase reaction, add 20 μL of peptide/ATP mixture using either a hand pipette or the Titertek Multidrop. Let sit on benchtop behind shield for one hour. No shaking is necessary and is not recommended when using Flexiplates (plates are not easy to add/remove from shaker).
Add 200 μL stop solution per well using either the Titertek Multidrop or hand pipette. Let stand at least 10 minutes. Spin plate approximately 2300 rpm for 3-5 minutes. Count plate on Trilux reader.
For orientation: SPA uses beads or plates that emit light when radiolabelled molecules are held near them.

T1 sequence (P00533 25-1210): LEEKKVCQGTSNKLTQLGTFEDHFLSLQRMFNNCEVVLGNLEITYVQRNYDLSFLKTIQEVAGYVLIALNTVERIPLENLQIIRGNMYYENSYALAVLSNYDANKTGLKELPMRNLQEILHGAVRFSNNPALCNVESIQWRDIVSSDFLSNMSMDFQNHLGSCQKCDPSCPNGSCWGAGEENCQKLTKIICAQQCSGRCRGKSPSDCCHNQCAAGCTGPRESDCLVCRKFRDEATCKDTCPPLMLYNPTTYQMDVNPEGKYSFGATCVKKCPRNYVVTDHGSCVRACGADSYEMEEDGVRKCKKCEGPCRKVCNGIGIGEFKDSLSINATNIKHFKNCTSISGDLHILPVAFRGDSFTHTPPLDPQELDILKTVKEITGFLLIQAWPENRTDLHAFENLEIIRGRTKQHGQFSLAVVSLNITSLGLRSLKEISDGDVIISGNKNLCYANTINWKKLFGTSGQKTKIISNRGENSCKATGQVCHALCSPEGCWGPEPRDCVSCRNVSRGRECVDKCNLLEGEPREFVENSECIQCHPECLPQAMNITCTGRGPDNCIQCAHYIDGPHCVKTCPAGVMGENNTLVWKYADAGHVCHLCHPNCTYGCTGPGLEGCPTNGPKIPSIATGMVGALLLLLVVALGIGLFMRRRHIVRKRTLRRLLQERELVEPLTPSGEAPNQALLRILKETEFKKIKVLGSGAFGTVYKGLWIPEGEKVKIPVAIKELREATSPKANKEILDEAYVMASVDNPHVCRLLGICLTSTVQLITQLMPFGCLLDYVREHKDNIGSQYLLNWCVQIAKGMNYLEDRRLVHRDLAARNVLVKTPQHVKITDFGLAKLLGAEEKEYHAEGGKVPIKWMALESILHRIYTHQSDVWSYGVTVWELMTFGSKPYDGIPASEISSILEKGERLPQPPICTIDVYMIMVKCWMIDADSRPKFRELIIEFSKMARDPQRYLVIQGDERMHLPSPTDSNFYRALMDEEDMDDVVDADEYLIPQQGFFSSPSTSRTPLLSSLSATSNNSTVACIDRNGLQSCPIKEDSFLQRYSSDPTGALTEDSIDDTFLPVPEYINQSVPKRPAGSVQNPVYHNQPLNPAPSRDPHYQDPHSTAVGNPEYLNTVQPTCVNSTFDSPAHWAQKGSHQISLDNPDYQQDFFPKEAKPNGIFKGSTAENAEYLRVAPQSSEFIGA

For orientation: IC50 means the concentration at which inhibition is half-maximal. With `Cc1cc(C(=O)NCCN2CCOCC2)[nH]c1C=C1C(=O)Nc2nccc(Nc3ccc(F)c(Cl)c3)c21` [Formula 3, 5-[4-(3-CHLORO-4-FLUORO-PHENYLAMINO)-2-OXO-1,2-DIHYDRO-PYRROLO[2,3-B]PYRIDIN-3-YLIDENEMETHYL]-4-METHYL-1H-PYRROLE-2-CARBOXYLIC ACID (2-MORPHOLIN-4-YL-ETHYL)-AMIDE], the concentration for half-maximal inhibition (IC50) was 510 nM in assay [1] and above 10000 nM in assay [2].
Consider `Cc1cc(C(=O)NCCN2CCOCC2)[nH]c1C=C1C(=O)Nc2ncnc(Nc3ccc(F)c(Cl)c3)c21` [Formula 4, 5-[4-(3-CHLORO-4-FLUORO-PHENYLAMINO)-6-OXO-6,7-DIHYDRO-PYRROLO[2,3-D]PYRIMIDIN-5-YLIDENEMETHYL]-4-METHYL-1H-PYRROLE-2-CARBOXYLIC ACID (2-MORPHOLIN-4-YL-ETHYL)-AMIDE HYDROCHLORIDE], for which, in assay [2], the IC50 is above 10000 nM.
Regarding `O=C1Nc2ncnc(N3CCCCC3)c2C1=Cc1ccc(C(=O)NCCN2CCOCC2)[nH]1` [Formula 5, 5-(6-OXO-4-PIPERIDIN-1-YL-6,7-DIHYDRO-PYRROLO[2,3-D]PYRIMIDIN-5-YLIDENEMETHYL)-1H-PYRROLE-2-CARBOXYLIC ACID (2-MORPHOLIN-4-YL-ETHYL)-AMIDE], in assay [1], the IC50 was above 20000 nM.
Consider `Cc1cc(C(=O)NCCN2CCOCC2)[nH]c1C=C1C(=O)Nc2ncnc(Nc3ccc4c(ccn4Cc4ccccc4)c3)c21.Cl` [Formula 6, 5-[4-(1-BENZYL-1H-INDOL-5-YLAMINO)-6-OXO-6,7-DIHYDRO-PYRROLO[2,3-D]PYRIMIDIN-5-YLIDENEMETHYL]-4-METHYL-1H-PYRROLE-2-CARBOXYLIC ACID (2-MORPHOLIN-4-YL-ETHYL)-AMIDE HYDROCHLORIDE], for which the “inhibition of EGFR (in words)” value in assay [1] (hydrochloride salt) is on record as “inhibits EGFR at very low concentrations”. Moreover, the IC50 in assay [1] was 1 nM.
For `Cc1[nH]c(C=C2C(=O)Nc3ncnc(Nc4ccc(F)c(Cl)c4)c32)c(C)c1CCCN1CCOCC1` [Formula 7, 4-(3-CHLORO-4-FLUORO-PHENYLAMINO)-5-[3,5-DIMETHYL-4-(3-MORPHOLIN-4-YL-PROPYL)-1H-PYRROL-2-YLMETHYLENE]-5,7-DIHYDRO-PYRROLO[2,3-D]PYRIMIDIN-6-ONE HYDROCHLORIDE], in assay [1], the IC50 turned out to be 160 nM.
Consider `Cc1nc[nH]c1C=C1C(=O)Nc2ncnc(Nc3ccc(F)c(Cl)c3)c21` [Formula 8], for which the IC50 in assay [1] was 60 nM; in assay [2], 2620 nM.
For `Cc1cc(C)c(C=C2C(=O)Nc3ncnc(Nc4ccc(F)c(Cl)c4)c32)[nH]1` [Formula 9], in assay [1], the IC50 is 40 nM.
With `Cc1cc(C(=O)NCCN2CCOCC2)[nH]c1C=C1C(=O)Nc2ncnc(N3CCN(C)CC3)c21` [Formula 10, 4-METHYL-5-[4-(4-METHYL-PIPERAZIN-1-YL)-6-OXO-6,7-DIHYDRO-PYRROLO[2,3-D]PYRIMIDIN-5-YLIDENEMETHYL]-1H-PYRROLE-2-CARBOXYLIC ACID (2-MORPHOLIN-4-YL-ETHYL)-AMIDE], in assay [1], the half-inhibitory concentration (IC50) is above 20000 nM.
For `Cc1nc[nH]c1C=C1C(=O)Nc2ncnc(N3CCN(C)CC3)c21` [Formula 11], the IC50 in assay [1] was above 20000 nM; in assay [2], 10 nM.
On to `O=C1Nc2ncnc(Nc3ccc4c(ccn4Cc4ccccc4)c3)c2C1=Cc1ccc(C(=O)NCCN2CCOCC2)[nH]1` [Formula 12, 5-[4-(1-BENZYL-1H-INDOL-5-YLAMINO)-6-OXO-6,7-DIHYDRO-PYRROLO[2,3-D]PYRIMIDIN-5-YLIDENEMETHYL]-1H-PYRROLE-2-CARBOXYLIC ACID (2-MORPHOLIN-4-YL-ETHYL)-AMIDE HYDROCHLORIDE], for which, in assay [1], the IC50 turned out to be 4 nM.
Regarding `O=C1Nc2ncnc(N3CCOCC3)c2C1=Cc1ccc(C(=O)NCCN2CCOCC2)[nH]1` [Formula 13, 5-(4-MORPHOLIN-4-YL-6-OXO-6,7-DIHYDRO-PYRROLO[2,3-D]PYRIMIDIN-5-YLIDENEMETHYL)-1H-PYRROLE-2-CARBOXYLIC ACID (2-MORPHOLIN-4-YL-ETHYL)-AMIDE], in assay [1], the half-maximal inhibitory concentration (IC50) was 19100 nM.
On to `Cc1nc[nH]c1C=C1C(=O)Nc2ncnc(N3CCOCC3)c21` [Formula 14], for which the IC50 in assay [1] is above 20000 nM; in assay [2], 40 nM.
In the case of `O=C1Nc2ncnc(Nc3ccc(F)c(Cl)c3)c2C1=Cc1ccc(C(=O)NCCN2CCOCC2)[nH]1` [Formula 15, 5-[4-(3-CHLORO-4-FLUORO-PHENYLAMINO)-6-OXO-6,7-DIHYDRO-PYRROLO[2,3-D]PYRIMIDIN-5-YLIDENEMETHYL]-1H-PYRROLE-2-CARBOXYLIC ACID (2-MORPHOLIN-4-YL-ETHYL)-AMIDE], the IC50 in assay [1] was found to be 20 nM.
The same measure, in the same setting: for `C#Cc1cccc(Nc2ncnc3c2C(=Cc2ccc(C(=O)NCCN4CCOCC4)[nH]2)C(=O)N3)c1` [Formula 16, 5-[4-(3-ETHYNYL-PHENYLAMINO)-6-OXO-6,7-DIHYDRO-PYRROLO[2,3-D]PYRIMIDIN-5-YLIDENEMETHYL]-1H-PYRROLE-2-CARBOXYLIC ACID (2-MORPHOLIN-4-YL-ETHYL)-AMIDE HYDROCHLORIDE] the value was 100 nM.
As to `C#Cc1cccc(Nc2ncnc3c2C(=Cc2[nH]c(C(=O)NCCN4CCOCC4)cc2C)C(=O)N3)c1` [Formula 17, 5-[4-(3-ETHYNYL-PHENYLAMINO)-6-OXO-6,7-DIHYDRO-PYRROLO[2,3-D]PYRIMIDIN-5-YLIDENEMETHYL]-4-METHYL-1H-PYRROLE-2-CARBOXYLIC ACID (2-MORPHOLIN-4-YL-ETHYL)-AMIDE], the IC50 in assay [1] came out at 20 nM.
With `C#Cc1cccc(Nc2ncnc3c2C(=Cc2[nH]c(C)c(CCCN4CCOCC4)c2C)C(=O)N3)c1` [Formula 18], the IC50 in assay [1] stood at 180 nM.
In the case of `CC(C)c1cc(CCC(=O)O)c(/C=C2\C(=O)Nc3ncnc(Nc4ccc(F)c(Cl)c4)c32)[nH]1` [Formula 27], the IC50 in assay [1] was found to be 150 nM.
Take `Cc1c(C(=O)N2CCOCC2)c[nH]c1/C=C1\C(=O)Nc2ncnc(Nc3ccc(F)c(Cl)c3)c21` [Formula 31]: the concentration for half-maximal inhibition (IC50) in assay [1] was 210 nM.
On to `Cc1cc(C(=O)N2CCOCC2)[nH]c1/C=C1\C(=O)N(C)c2ncnc(Nc3ccc(F)c(Cl)c3)c21` [Formula 34], for which the IC50 in assay [1] is above 20000 nM.
With `Cc1cc(C(=O)N2CCN(C)CC2)[nH]c1/C=C1\C(=O)N(C)c2ncnc(Nc3ccc(F)c(Cl)c3)c21` [Formula 36], the IC50 in assay [1] turned out to be 17400 nM.
`Cc1cc(C=C2C(=O)Nc3ncnc(Nc4ccc(F)c(Cl)c4)c32)[nH]c1C(=O)N1CCOCC1` [Formula 37]: the IC50 in assay [1] worked out at 240 nM.
